Literature values, collected in patent US10010502B2, “Device that delivers a sustained low-dose of a myopia-suppressing drug, while preserving pupillary function and accommodation” (AMORPHEX THERAPEUTICS LLC, priority 2015, dated 2018).
“Also recorded” adds a separate entry of the source.

How the values were obtained:
childhood myopia = settings: 68 myopic children, oral dose of 400 mg
myopia progression [1] = test system: myopia progression
myopia progression [2] = test system: myopia progression; remark: listed apart in the source
[3] = test system: muscarinic receptors of the pupil and ciliary body

Cn1cnc2[nH]c(=O)[nH]c(=O)c21 [7-methylxanthine]
eye elongation and myopia progression (childhood myopia): reduce eye elongation and myopia progression | safety / adverse effects (childhood myopia): safe and without side effects; also recorded: no reported adverse effects

CN1CCc2cccc3c2[C@H]1Cc1ccc(O)c(O)c1-3 [apomorphine]
myopia progression in animal models (myopia progression [1]): retard myopia progression

CN1[C@@H]2CC[C@H]1C[C@@H](OC(=O)C(CO)c1ccccc1)C2 (some centres unmarked) [atropine]
glare symptoms (myopia progression [2]; 0.01% drops): some mild glare symptoms | visual acuity, quality of life, reading speed (myopia progression [2]; 0.01% drops): no decrease in visual acuity, quality of life or reading speed | myopia progression (myopia progression [2]; eye drop concentrations of 0.5% and 1.0%): ≤ 0.2 diopters/year | increase in pupil size easily tolerated by children (myopia progression [2]; lower dose atropine drops, normal light conditions): 1 mm | effect on myopia progression (myopia progression [2]; lowest dose eye drops studied, 0.01%): less-than-optimal but measureable effect | duration of dilation after one drop (myopia progression [2]; one eye drop): several days or even a week or more

N[C@@H](Cc1ccc(O)c(O)c1)C(=O)O [levodopa]
myopia progression in animal models (myopia progression [1]): retard myopia progression

CN1CCN(CC(=O)N2c3ccccc3C(=O)Nc3cccnc32)CC1 [pirenzepine]
activity at muscarinic receptors of the pupil and ciliary body relative to atropine [3]: less active at the muscarinic receptors of the pupil and ciliary body than atropine
